Reference: PMC6018746, “Activation of the p53-MDM4 regulatory axis defines the anti-tumour response to PRMT5 inhibition through its role in regulating cellular splicing” (Scientific Reports, 2018)
Where “and” joins values, the source holds several entries; their conditions need not be identical. Equal entries are not always repeated. Where two headings read alike, the source gives them in different places.

Tested on: panel of hematologic and solid cancer lines
Experiment: 6-day in vitro growth/death assay
Type: cell-based, human
Details: for IC50: read-out: gIC50
Procedure: To further develop these molecules and to guide clinical strategy, it was necessary to understand sensitivity in preclinical models by assessing the anti-tumour activity of the PRMT5 inhibitors in various cancers.
Cell lines were obtained from ATCC or DSMZ and were grown in recommended medium, which was most frequently RPMI-1640 containing 10% FBS. Cell line proliferation assays, Western blotting, qRT-PCR, and cell cycle analyses were performed as described previously[27],[28]. Antibody and gene expression reagents are as described in Supplementary Table 16. All studies were conducted in accordance with the GSK Policy on the Care, Welfare and Treatment of Laboratory Animals and were reviewed by the Institutional Animal Care and Use Committee either at GSK or by the ethical review process at the institution where the work was performed. Detailed descriptions of all methods can be found in the Supplemental Materials.

## CC(=O)N1CCC(Nc2cc(C(=O)NC[C@H](O)CN3CCc4ccccc4C3)ncn2)CC1 [GSK3326595]
5637
  IC50: 69 nM
HCC70
  IC50: 130 nM
HCC1143
  IC50: 246 nM
HCC1806
  IC50: 98 nM
Homo sapiens, 5637
  IC50: 69.3 nM
Homo sapiens, HCC70, HCC70
  IC50: 130 nM
Homo sapiens, HCC1143, HCC1143
  IC50: 246 nM
Homo sapiens, HCC1806, HCC1806
  IC50: 97.6 nM
Homo sapiens, HCC1954, HCC1954
  IC50: 79.2 nM
Homo sapiens, HT-1376, HT-1376
  IC50: 17600 nM
Homo sapiens, J82, J82
  IC50: 29300 nM
Homo sapiens, JM1, JM1
  IC50: 79 nM
Homo sapiens, KMS-11, KMS-11
  IC50: 66.5 nM
Homo sapiens, LN-229, LN-229
  IC50: 254 nM
Homo sapiens, LP-1, LP1
  IC50: 1940 nM
Homo sapiens, MCF7, MCF-7
  IC50: 61.7 nM
Homo sapiens, MDA-MB-231, MDA-MB-231
  IC50: 544 nM
Homo sapiens, MDA-MB-453, MDA-MB-453
  IC50: 28.7 nM
Homo sapiens, MDA-MB-468, MDA-MB-468
  IC50: 56.5 nM
Homo sapiens, MINO
  IC50: 130 nM
Homo sapiens, Maver1, MAVER-1
  IC50: 84.9 nM
Homo sapiens, NCI-H526, NCI-H526
  IC50: 275 nM
Homo sapiens, NCI-H526-R
  IC50: 344 nM
Homo sapiens, NU-DHL-1, NU-DHL-1
  IC50: 333 nM
Homo sapiens, NU-DUL-1, NU-DUL-1
  IC50: 333 nM
Homo sapiens, PER-403, PER-403
  IC50: 38.3 nM
Homo sapiens, PER-624
  IC50: 524 nM
Homo sapiens, PER-704
  IC50: 658 nM
Homo sapiens, Pfeiffer
  IC50: 421 nM
Homo sapiens, RCK8, RCK8
  IC50: 529 nM
Homo sapiens, RL
  IC50: 11.8 nM
Homo sapiens, RPMI-8226, RPMI-8226
  IC50: 21.7 nM
Homo sapiens, RPMI-8226-DOX
  IC50: 29300 nM
Homo sapiens, RPMI-8226-LR5
  IC50: 286 nM
Homo sapiens, SCaBER
  IC50: 198 nM
Homo sapiens, SF-295, SF295
  IC50: 24700 nM
Homo sapiens, SF-539, SF539
  IC50: 60.9 nM
Homo sapiens, SK-BR-3, SK-BR-3
  IC50: 73.1 nM
Homo sapiens, SU-DHL10, SU-DHL-10
  IC50: 36.7 nM
Homo sapiens, SU-DHL-2, SU-DHL-2
  IC50: 34.1 nM
Homo sapiens, SU-DHL-4, SU-DHL-4
  IC50: 492 nM
Homo sapiens, SU-DHL-5, SU-DHL-5
  IC50: 28.3 nM
Homo sapiens, SU-DHL-6, SU-DHL-6
  IC50: 3.9 nM
Homo sapiens, SU-DHL-8, SU-DHL-8
  IC50: 52.5 nM
Homo sapiens, SU-DHL-16, SU-DHL-16
  IC50: 98.9 nM
Homo sapiens, SW780, SW-780
  IC50: 290 nM
Homo sapiens, T-24, T24
  IC50: 765 nM
Homo sapiens, U2932, U2932
  IC50: 52.5 nM
Homo sapiens, U-87 MG
  IC50: 39.6 nM
Homo sapiens, U-2940, U2940
  IC50: 14800 nM
Homo sapiens, UMUC3, UM-UC-3
  IC50: 29300 nM
Homo sapiens, WSU-NHL
  IC50: 8.4 nM
Homo sapiens, WSUDLCL2, WSU-DLCL2
  IC50: 81.7 nM
Homo sapiens, ZR-75-1, ZR-75-1
  IC50: 11000 nM
J82
  IC50: 29300 nM
KMS-11
  IC50: 66 nM
LN-229
  IC50: 254 nM
LP1
  IC50: 1940 nM
MAVER-1
  IC50: 85 nM
MDA-MB-231
  IC50: 544 nM
MDA-MB-453
  IC50: 29 nM
MDA-MB-468
  IC50: 57 nM
MINO
  IC50: 130 nM and > 100 nM
NCI-H526-R
  IC50: 344 nM
NCI-H526
  IC50: 275 nM
PER-403
  IC50: 38 nM
PER-624
  IC50: 524 nM
PER-704
  IC50: 658 nM
RCK8
  IC50: 529 nM
RL
  IC50: 14 nM
SF295
  IC50: 24700 nM
SF539
  IC50: 61 nM
SK-BR-3
  IC50: 73 nM
SU-DHL-2
  IC50: 28 nM
SU-DHL-4
  IC50: 492 nM
SU-DHL-6
  IC50: 4 nM
SU-DHL-8
  IC50: 53 nM
SU-DHL-10
  IC50: 54 nM
SU-DHL-16
  IC50: 99 nM
ScaBER
  IC50: 198 nM
T24
  IC50: 765 nM
U2932
  IC50: 53 nM
U2940
  IC50: 10200 nM
U-87MG
  IC50: 40 nM
WSU-DLCL2
  IC50: 82 nM
WSU-NHL
  IC50: 8 nM
Z-138
  gIC100: 80.7 nM
